The text below walks through data of patent US6548555B1, “Basic drug compositions with enhanced bioavailability” (Pfizer Inc, priority 1999, dated 2003).

Series [1] is described as follows: Dissolution test by microcentrifuge method, Example 6. The conditions noted are these: 37° C., 2.7 mg drug, 3.6 mg polymer or none, 1.8 mL. The format is physicochemical. As for the experimental part:
Dissolution performance was measured at 37° C. using a microcentrifuge method. For these tests, 2.7 mg drug in 0.9 mLs 25% gastric solution/75% HPLC water was added to each of 6 microcentrifuge tubes. At time 0, 0.9mLs 2×PBS without polymer was added to tubes 1 and 2, and 0.9 mLs 2×PBS containing 3.6 mg HPMCAS-MF or cellulose acetate trimellitate (CAT) was added to tubes 3 and 4, or 5 and 6. Samples were taken after 4, 10, 20, 40, 90, and 180 minutes, analyzed by HPLC, and compound concentrations were calculated. Gastric solution is 84 mM HCl, 34 mM NaCl, pH 1.2. PBS is phosphate buffered saline: 20 mM sodium phosphate, 4.7 mM potassium phosphate, 8.2 mM NaCl, 0.2 mM KCl, pH 6.5. “2×PBS” is a solution in which the components of PBS are present at 2-fold higher concentration.

A short description of series [2]: Solubility of the Example 6 drug at pH 2 and pH 6.8. The format is physicochemical. Particulars: thermodynamic from solid. As for the experimental part: A test drug is dissolved in a pH 1-2 environment, typically aqueous deionized distilled water adjusted to a target pH within the aforesaid pH 1-2 range by adding an appropriate amount of hydrochloric acid. The amount of drug added is an amount sufficient to saturate the aqueous test medium. The test medium can be agitated, typically gently, by means of a stirring bar, overhead stirrer, or the like. Typically the test medium is left to sit (while being agitated) for several hours, typically overnight. The sample can then be filtered or centrifuged as previously described, and solubility in the filtrate or supernate can then be measured by determining the concentration with any suitable means of detection appropriate to the drug. Likewise, the solubility is also determined at pH 5 to 7. If the drug's pH 1-2 solubility is 3- or more-fold its pH 5-7 solubility, then the drug will benefit from this invention.

The conditions of series [3]: HPMCAS dispersions, dissolution tests at pH 4.0; cited from earlier work.

Take `CN1CCN(c2ccccc2/C=C2\SCCN(c3ccc(Cl)c(Cl)c3)C2=O)CC1.Cl.O` [Z-4-(3,4-dichlorophenyl)-2-[2-(4-methylpiperazin-1-yl)-benzylidene]-thiomorpholin-3-one hydrochloride monohydrate]: the “Drug Conc” value in series [1] (4 min after adding 2xPBS to drug in 25% gastric solution) worked out at 518 µg/mL; in series [1] (10 min after adding 2xPBS to drug in 25% gastric solution), 459 µg/mL; in series [1] (20 min after adding 2xPBS to drug in 25% gastric solution), 432 µg/mL; in series [1] (40 min after adding 2xPBS to drug in 25% gastric solution), 317 µg/mL; in series [1] (90 min after adding 2xPBS to drug in 25% gastric solution), 263 µg/mL; in series [1] (180 min after adding 2xPBS to drug in 25% gastric solution), 204 µg/mL. Also, the solubility in series [2] (deionized distilled water adjusted with hydrochloric acid, pH 2, simulated gastric fluid) was 3000 µg/mL; in series [2] (pH 6.8, aqueous buffer), 12 µg/mL.
For the molecule `CCC1OC(=O)CC(O)C(C)C(OC2OC(C)C(OC3CC(C)(O)C(OC(=O)Cc4ccc(OC)cc4)C(C)O3)C(N(C)C)C2O)C(CC=O)CC(C)C(=O)C=CC(C)=CC1COC1OC(C)C(O)C(OC)C1OC` (stereo not drawn) [MAT, 4″-O-(4-methoxyphenyl)acetyltylosin], the “supersaturated concentration relative to crystalline MAT” value in series [3] is 9 fold.
